# Source: paper PMC9103764, “Pilot Study on Acute Effects of Pharmacological Intraperitoneal L-Homoarginine on Homeostasis of Lysine and Other Amino Acids in a Rat Model of Isoprenaline-Induced Takotsubo Cardiomyopathy” (International Journal of Molecular Sciences, 2022)
# How the values were obtained:
# [1] = design: method as in PMID 28710553; settings: single i.p. hArg 20, 220, 440 mg/kg; cited from earlier work
# [2] = design: method as in PMID 31776762; settings: decarboxylation product of hArg; rat TTC model; cited from earlier work
# [3] = oral hArg 125 mg/day, cited from earlier work
# [4] = design: method as in PMID 24004504; settings: cited from earlier work
# arginase = system: arginase; design: method as in PMID 31028716; settings: cited from earlier work
# [5] = Free amino acids by GC-MS in organ homogenates of rats given i.p. hArg (isoprenaline-induced takotsubo model)
# [6] = hArg treatment, mice, dose-dependent
# [7] = R1, hArg 440 mg/kg i.p., sacrifice 32 min, ISO 50 mg/kg i.p. at 15 min
# [8] = R2, hArg 20 mg/kg i.p., sacrifice 64 min, ISO 50 mg/kg i.p. at 15 min
# [9] = R3, hArg 20 mg/kg i.p., sacrifice 28 min, ISO 50 mg/kg i.p. at 15 min
# [10] = R4, hArg 440 mg/kg i.p., sacrifice 87 min, ISO 50 mg/kg i.p. at 15 min
# [11] = R13, hArg 20 mg/kg i.p., sacrifice 126 min, ISO 50 mg/kg i.p. at 15 min
# [12] = R14, hArg 220 mg/kg i.p., sacrifice 108 min, ISO 50 mg/kg i.p. at 15 min
# [13] = R17, hArg 440 mg/kg i.p., sacrifice 14 min, no ISO
# [14] = R18, hArg 20 mg/kg i.p., sacrifice 114 min, ISO 50 mg/kg i.p. at 15 min
# [15] = R19, hArg 220 mg/kg i.p., sacrifice 98 min, ISO 50 mg/kg i.p. at 15 min
smiles,measurement,setting,value
"N=C(N)NCCCC[C@H](N)C(=O)O [hArg, L-homoarginine]",changes in nitrite and nitrate,[1],marginal
same,"tissue homoagmatine (hAgm) concentration, median [interquartile range]",[2],34.8 [4.6–270] nM
same,effects on cognition,[3]; healthy humans,did not reveal any appreciable effects on cognition
same,increase of plasma Lys concentration compared to placebo,[3]; healthy young volunteers,about 8%
same,"pulse wave velocity, augmentation index, flow-mediated vasodilatation, corticospinal and cortical excitability",[3]; healthy young volunteers,without changes
same,infarct size,[4]; [6],decreased infarct sizes
same,neurological scores,[4]; [6],improved neurological scores
same,hArg plasma concentration,"[4]; oral hArg, C57BL6 mice, versus vehicle-treated",0.20 ± 0.02 µM
same,substrate quality for arginase,arginase,poor substrate
same,"free Arg concentration, kidney homogenate",[5]; [7],365 µM
same,"free Arg concentration, lung homogenate",[5]; [7],102 µM
same,"free Lys concentration, kidney homogenate",[5]; [7],646 µM
same,"free Lys concentration, lung homogenate",[5]; [7],229 µM
same,"free Arg concentration, heart homogenate",[5]; [8],384 µM
same,"free Arg concentration, kidney homogenate",[5]; [8],37.4 µM
same,"free Arg concentration, liver homogenate",[5]; [8],124 µM
same,"free Arg concentration, lung homogenate",[5]; [8],210 µM
same,"free Lys concentration, heart homogenate",[5]; [8],644 µM
same,"free Lys concentration, kidney homogenate",[5]; [8],96 µM
same,"free Lys concentration, liver homogenate",[5]; [8],241 µM
same,"free Lys concentration, lung homogenate",[5]; [8],306 µM
same,"free Arg concentration, heart homogenate",[5]; [9],575 µM
same,"free Arg concentration, kidney homogenate",[5]; [9],60.7 µM
same,"free Arg concentration, liver homogenate",[5]; [9],14.3 µM
same,"free Arg concentration, lung homogenate",[5]; [9],7.34 µM
same,"free Lys concentration, heart homogenate",[5]; [9],834 µM
same,"free Lys concentration, kidney homogenate",[5]; [9],173 µM
same,"free Lys concentration, liver homogenate",[5]; [9],392 µM
same,"free Lys concentration, lung homogenate",[5]; [9],191 µM
same,"free Arg concentration, kidney homogenate",[5]; [10],73.8 µM
same,"free Arg concentration, liver homogenate",[5]; [10],10.3 µM
same,"free Arg concentration, lung homogenate",[5]; [10],185 µM
same,"free Lys concentration, kidney homogenate",[5]; [10],187 µM
same,"free Lys concentration, liver homogenate",[5]; [10],714 µM
same,"free Lys concentration, lung homogenate",[5]; [10],441 µM
same,"free Arg concentration, heart homogenate",[5]; [11],75.4 µM
same,"free Arg concentration, kidney homogenate",[5]; [11],370 µM
same,"free Arg concentration, liver homogenate",[5]; [11],21.2 µM
same,"free Arg concentration, lung homogenate",[5]; [11],261 µM
same,"free Lys concentration, heart homogenate",[5]; [11],151 µM
same,"free Lys concentration, kidney homogenate",[5]; [11],602 µM
same,"free Lys concentration, liver homogenate",[5]; [11],492 µM
same,"free Lys concentration, lung homogenate",[5]; [11],471 µM
same,"free Arg concentration, heart homogenate",[5]; [12],91.2 µM
same,"free Arg concentration, kidney homogenate",[5]; [12],733 µM
same,"free Arg concentration, liver homogenate",[5]; [12],15.9 µM
same,"free Arg concentration, lung homogenate",[5]; [12],171 µM
same,"free Lys concentration, heart homogenate",[5]; [12],154 µM
same,"free Lys concentration, kidney homogenate",[5]; [12],1101 µM
same,"free Lys concentration, liver homogenate",[5]; [12],391 µM
same,"free Lys concentration, lung homogenate",[5]; [12],245 µM
same,"free Arg concentration, heart homogenate",[5]; [13],92 µM
same,"free Arg concentration, kidney homogenate",[5]; [13],767 µM
same,"free Arg concentration, liver homogenate",[5]; [13],29.8 µM
same,"free Arg concentration, lung homogenate",[5]; [13],230 µM
same,"free Lys concentration, heart homogenate",[5]; [13],140 µM
same,"free Lys concentration, kidney homogenate",[5]; [13],1138 µM
same,"free Lys concentration, liver homogenate",[5]; [13],497 µM
same,"free Lys concentration, lung homogenate",[5]; [13],386 µM
same,"free Arg concentration, heart homogenate",[5]; [14],51.3 µM
same,"free Arg concentration, kidney homogenate",[5]; [14],262 µM
same,"free Arg concentration, liver homogenate",[5]; [14],10.1 µM
same,"free Arg concentration, lung homogenate",[5]; [14],136 µM
same,"free Lys concentration, heart homogenate",[5]; [14],153 µM
same,"free Lys concentration, kidney homogenate",[5]; [14],503 µM
same,"free Lys concentration, liver homogenate",[5]; [14],328 µM
same,"free Lys concentration, lung homogenate",[5]; [14],391 µM
same,"free Arg concentration, kidney homogenate",[5]; [15],56.3 µM
same,"free Arg concentration, liver homogenate",[5]; [15],15 µM
same,"free Arg concentration, lung homogenate",[5]; [15],233 µM
same,"free Lys concentration, kidney homogenate",[5]; [15],145 µM
same,"free Lys concentration, liver homogenate",[5]; [15],451 µM
same,"free Lys concentration, lung homogenate",[5]; [15],169 µM
same,increase in free GAA in the kidney,"[5]; after i.p. hArg, Figure 5",~100 fold
same,effect on global arginine bioavailability ratio (GABR),"[5]; all organs, data not shown",independent of the hArg dose
